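All cell lines were grown in 96-well plates and treated with compound for 48 hours. Abbreviation: GI50, concentration required for 50% inhibition of growth.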 Active and inactive are the calls of the source. Rule as the data show it: active = GI50 up to about 1.1 µM and inactive = higher.
Columns and labels:
Test in all cases: NCI-60 cell line screen, 48 h
OVCAR-3 = tested on: OVCAR-3
ACHN = tested on: ACHN
UO-31 = tested on: UO-31
HCT-15 = tested on: HCT-15
HCT-116 = tested on: HCT-116
SN12C = tested on: SN12C
SK-MEL-5 = tested on: SK-MEL-5
SK-MEL-2 = tested on: SK-MEL-2
OVCAR-8 = tested on: OVCAR-8
EKVX = tested on: EKVX
HT-29 = tested on: HT-29
SW-620 = tested on: SW-620
RPMI-8226 = tested on: RPMI-8226
A549 = tested on: A549
M14 = tested on: M14
NCI-H522 = tested on: NCI-H522

CCC1CN2CCc3cc(OC)c(OC)cc3C2CC1CC1c2cc(OC)c(OC)cc2CCN1C(=O)C1CCCN1C(=O)OCc1ccccc1 (stereo not drawn)
GI50 (OVCAR-3): 16.2 µM (inactive) | GI50 (ACHN): 17.7 µM (inactive) | GI50 (UO-31): 12.7 µM (inactive) | GI50 (HCT-15): 16.2 µM | GI50 (HCT-116): 13.1 µM (inactive) | GI50 (SN12C): 16.3 µM (inactive) | GI50 (SK-MEL-5): 15.5 µM (inactive) | GI50 (SK-MEL-2): 17.2 µM (inactive) | GI50 (OVCAR-8): 17.1 µM (inactive) | GI50 (EKVX): 22.7 µM (inactive) | GI50 (HT-29): 14.1 µM (inactive) | GI50 (SW-620): 14.8 µM (inactive) | GI50 (RPMI-8226): 15 µM (inactive) | GI50 (A549): 18.9 µM (inactive) | GI50 (M14): 17.1 µM (inactive)

c1ccc(C2(c3ccccc3)SSC3(S2)C2CC4CC(C2)CC3C4)cc1 (stereo not drawn)
GI50 (ACHN): > 100 µM (inactive) | GI50 (UO-31): > 100 µM (inactive) | GI50 (HCT-15): > 100 µM | GI50 (HCT-116): > 100 µM (inactive) | GI50 (SN12C): > 100 µM (inactive) | GI50 (SK-MEL-5): > 100 µM (inactive) | GI50 (SK-MEL-2): > 100 µM (inactive) | GI50 (OVCAR-8): > 100 µM (inactive) | GI50 (EKVX): > 100 µM (inactive) | GI50 (HT-29): > 100 µM (inactive) | GI50 (SW-620): > 100 µM (inactive) | GI50 (RPMI-8226): 37.2 µM (inactive) | GI50 (A549): > 100 µM (inactive) | GI50 (M14): > 100 µM (inactive)

COC1(OC)CC2C(=O)N(Cc3ccccc3)C1C=C2S(=O)(=O)c1ccccc1 (stereo not drawn)
GI50 (OVCAR-3): 14.8 µM (inactive) | GI50 (ACHN): 20.8 µM (inactive) | GI50 (NCI-H522): 13.9 µM (inactive) | GI50 (UO-31): 25 µM (inactive) | GI50 (HCT-116): 13.8 µM (inactive) | GI50 (SN12C): 16.4 µM (inactive) | GI50 (SK-MEL-5): 13.8 µM (inactive) | GI50 (OVCAR-8): 17.9 µM (inactive) | GI50 (EKVX): 15.6 µM (inactive) | GI50 (HT-29): 18.5 µM (inactive) | GI50 (SW-620): 15.2 µM (inactive) | GI50 (RPMI-8226): 21 µM (inactive) | GI50 (A549): 21.9 µM (inactive) | GI50 (M14): 16.1 µM (inactive)

CC(C)C1CC2C(=O)N(c3ccccc3)C(=O)C2c2[nH]c3ccccc3c21 (stereo not drawn)
GI50 (OVCAR-3): 5.78 µM (inactive) | GI50 (ACHN): 4.4 µM (inactive) | GI50 (UO-31): 17.3 µM (inactive) | GI50 (HCT-15): 14.6 µM | GI50 (HCT-116): 4.13 µM (inactive) | GI50 (SK-MEL-5): 73.8 µM (inactive) | GI50 (SK-MEL-2): 35.2 µM (inactive) | GI50 (OVCAR-8): 7.24 µM (inactive) | GI50 (EKVX): 61.7 µM (inactive) | GI50 (HT-29): 22.9 µM (inactive) | GI50 (SW-620): 8.26 µM (inactive) | GI50 (RPMI-8226): 19.8 µM (inactive) | GI50 (A549): 14.4 µM (inactive) | GI50 (M14): 38.5 µM (inactive)

C[C@]12CC[C@@H]3c4ccccc4CC[C@H]3[C@@H]1CC[C@@H]2O
GI50 (OVCAR-3): > 100 µM (inactive) | GI50 (ACHN): > 100 µM (inactive) | GI50 (NCI-H522): 49.2 µM (inactive) | GI50 (UO-31): 39.7 µM (inactive) | GI50 (HCT-15): 50.2 µM | GI50 (HCT-116): > 100 µM (inactive) | GI50 (SN12C): 83 µM (inactive) | GI50 (OVCAR-8): > 100 µM (inactive) | GI50 (EKVX): 80.5 µM (inactive) | GI50 (SW-620): > 100 µM (inactive) | GI50 (RPMI-8226): 53.2 µM (inactive) | GI50 (A549): 99.3 µM (inactive) | GI50 (M14): > 100 µM (inactive)

CC(=O)Nc1ccc(-c2nnc(SCC(=O)Nc3ccc([N+](=O)[O-])cc3)o2)cc1
GI50 (OVCAR-3): 14.5 µM (inactive) | GI50 (ACHN): 15.4 µM (inactive) | GI50 (NCI-H522): 7.85 µM (inactive) | GI50 (UO-31): 18.9 µM (inactive) | GI50 (HCT-15): 12.9 µM | GI50 (HCT-116): 12.5 µM (inactive) | GI50 (SN12C): 16.3 µM (inactive) | GI50 (SK-MEL-5): 13.1 µM (inactive) | GI50 (SK-MEL-2): 14.3 µM (inactive) | GI50 (OVCAR-8): 14.6 µM (inactive) | GI50 (HT-29): 13.4 µM (inactive) | GI50 (SW-620): 16.2 µM (inactive) | GI50 (RPMI-8226): 24.7 µM (inactive) | GI50 (A549): 17.5 µM (inactive) | GI50 (M14): 13.9 µM (inactive)

COc1ccc(OC)c(NC(=O)C(=O)CC(=O)c2sc(-n3nc(-c4ccccc4)cc3-c3ccccc3)nc2C)c1
GI50 (OVCAR-3): > 100 µM (inactive) | GI50 (NCI-H522): > 100 µM (inactive) | GI50 (UO-31): > 100 µM (inactive) | GI50 (HCT-15): > 100 µM | GI50 (HCT-116): > 100 µM (inactive) | GI50 (SN12C): > 100 µM (inactive) | GI50 (SK-MEL-2): > 100 µM (inactive) | GI50 (OVCAR-8): > 100 µM (inactive) | GI50 (HT-29): > 100 µM (inactive) | GI50 (SW-620): > 100 µM (inactive) | GI50 (RPMI-8226): > 100 µM (inactive) | GI50 (A549): > 100 µM (inactive) | GI50 (M14): > 100 µM (inactive)
